# Patent publication US12115147B2, “Formulations and methods related to eye irritation” (Lebrun Labs LLC, priority 2020, dated 2024)
# Like-named read-outs stand apart in the source and are kept apart here.
# What was measured:
# [1] = OPTISAFE in vitro ocular irritation test, original formulation without antioxidants; settings: for OPTISAFE (no antioxidant) Score AVG: ROS/CL chemicals; for OPTISAFE (no antioxidant) Score AVG / OPTISAFE Score AVG: triplicate assays; for OPTISAFE Score AVG: original formulation without antioxidants
# Procedure: Surfactants were diluted.
# Next a study was conducted to determine if the addition of antioxidants changes the reliability (repeatability) of the test method. After this, a large study determined if antioxidants specifically reduce the false positive rate without impacting the true positive rate and the true negative rate and then all prior test chemicals were rested with antioxidants in triplicate.
# [2] = pH 6.36
# [3] = no antioxidants, predicted GHS class, cited from earlier work
# [4] = system: reconstituted human corneal epithelium; assay: Modified EPIOCULAR test with or without ascorbic acid overlay, MTT viability
# Procedure: To include the antioxidant mixture in cell-based assays, the mix can be added to the medium or the test sample. Per the EPIOCULAR protocol by MatTek Corporation, the EpiOcular Assay Medium should be warmed to approximately 37° C. […] The standard operating procedures are listed as follows:
# Tissue Preincubation • 1) RhCE tissues (purchased from MatTek Corporation) are equilibrated for about 15 min. • 2) The antioxidant is added to the Assay Medium and used for all steps that follow and/or the antioxidant is added to the test chemical or overlayed over the tissue prior to test chemical exposure. […] The tissues were then incubated at standard culture conditions for 30±2 min. • 3) Antioxidant procedure: The test article used was Styrene (CASRN 100-42-5, Lot No. MKCM4502). […] Modifications Required for Solids • 1) Each solid is tested by applying one leveled volumetric spoonful of material to be tested into tissue insert (approximately 50 mg). and incubated for 6 hours. • 2) Rinsing: At the end of the 6 hours, the test articles are removed by rinsing (as above). • 3) Post-treatment: After rinsing, the tissue inserts are immersed in 5 mL of previously warmed Assay Medium • 4) Recovery: Next, each insert is removed from the Assay Medium, and transferred to a plate containing 1 mL of Medium. The tissues are then incubated for 18 hours under cell culture. Cell Viability Test • 1) After the post-treatment incubation, the MTT viability test is done. • 2) A 1.0 mg/mL MTT solution is prepared and 300 μL of the MTT solution is added to each well of a 24-well plate. each insert is removed from the 6-well plate and placed into the 24-well plate containing 0.3 mL of MTT solution. The plate is then incubated for 3 hours under culture conditions. • 3) After incubation, each insert is removed from the 24-well plate and then transferred to a 24-well plate containing 2.0 mL of isopropanol. […] Alternative Visual Determination of Viability and Irritant Prediction • 1) Since viable cells turn MTT purple, the relative viability of one tissue to the next can be determined by a visual inspection. […]
# [5] = OS2 (OPTISAFE2), OPTISAFE formulation with antioxidants; settings: for OS2 Cons / OS2 R1 / OS2 R3: Table 7B; for OS2 Cons: majority prediction of the triplicate assays; for OS2 R1: repeat 1, with antioxidants; for OS2 R1 / OS2 R3: predicted GHS class; for OS2 R3: repeat 3, with antioxidants
# [6] = system: rabbit eye; settings: Table 7B; based on the Draize data; cited from earlier work
# [7] = Table 7B, consensus of past application domain study
# [8] = Table 7A, consensus of past transferability study
compound,measurement,setting,value
CCOCCOCC [Ethylene glycol diethyl ether],OPTISAFE (no antioxidant) Score AVG,[1],25.4 ± 1.8
same,OS2 (with antioxidant) Score AVG,[2],21.6 ± 2.5
same,OS2 Cons,[2],2
same,OS2 R1,[2],2
same,OS2 R3,[2],2
same,OS Cons,[3]; [7],2
CC(C)Br [iso-Propyl bromide],OPTISAFE prediction without the antioxidant mixture,[1],overpredicted
C=Cc1ccccc1 [Styrene],"prediction, Condition 2",[4]; ascorbic acid (0.3 mg/ml) in PBS overlay and culture medium,nonirritant (TN)
same,"cell killing, Condition 2","[4]; ascorbic acid (0.3 mg/ml) in PBS overlay and culture medium, MTT, visual",significantly less cell killing
same,"cell killing, Condition 1","[4]; no ascorbic acid added, 50 μL, 30 min exposure, MTT, visual",extensive cell killing
same,OPTISAFE (no antioxidant) Score AVG,[1],53.5 ± 10.1
same,OS2 (with antioxidant) Score AVG,[2],3.5 ± 0.8
OCCOCCOCCO [Triethylene glycol],OPTISAFE (no antioxidant) Score AVG,[1],13.2 ± 3.5
same,OS2 (with antioxidant) Score AVG,[2],5.1 ± 1.7
same,OS2 score average,[2],3.1
same,OS2 scores ranged from,[2],2.1-4.2
same,Score = Average score,[2],3.1
same,OS Cons,[3]; [7],2
CCOCCOCCO [2-(2-Ethoxyethoxy)ethanol],OPTISAFE (no antioxidant) Score AVG,[1],21.7 ± 0.3
same,OS2 (with antioxidant) Score AVG,[2],12.0 ± 0.3
same,OS Cons,[3]; [7],2
C=C(C)C(=O)OCCOCC [2-Ethoxyethyl methacrylate],OPTISAFE (no antioxidant) Score AVG,[1],97.1 ± 18.2
same,OS2 (with antioxidant) Score AVG,[2],14.5 ± 2.7
same,OS2 Cons,[2],2
same,OS2 R1,[2],2
same,OS Cons,[3]; [7],1
"CCC(O)C(C)(C)C (stereo not drawn) [2,2-Dimethyl-3-pentanol]",OPTISAFE prediction without the antioxidant mixture,[1],overpredicted
same,OPTISAFE Score AVG,[1],19.2 ± 1.2
same,OS2 Score AVG,[2],15.1 ± 0.4
same,OS Cons,[3]; [8],2
c1ccc(OP(Oc2ccccc2)Oc2ccccc2)cc1 [Triphenyl phosphite],OPTISAFE Score AVG,[1],113.3 ± 2.1
same,OS Cons,[3]; [7],1
same,OS2 Cons,[5],1
same,OS2 R1,[5],1
same,OS2 R3,[5],1
same,OS2 Score AVG,"[5]; new formulation with antioxidants at the in vivo concentration, triplicate assays",169.0 ± 9.9
CCCCCCCCCCCC [Dodecane],OPTISAFE Score AVG,[1],0.9 ± 0.8
same,OS2 Score AVG,[2],3.0 ± 2.6
"CC(O)CC(C)O (stereo not drawn) [2,4-Pentanediol]",OPTISAFE Score AVG,[1],12.0 ± 1.4
same,OS2 Score AVG,[2],10.2 ± 0.7
same,OS2 score average,[2],9.5
same,OS2 scores ranged from,[2],7.8-10.9
same,Score = Average score,[2],9.5
CCOC(C)=O [Ethyl acetate],OPTISAFE Score AVG,[1],23.9 ± 2.0
same,OS2 Cons,[2],2
same,OS2 R1,[2],2
same,OS2 R3,[2],2
same,OS2 Score AVG,[2],25.6 ± 2.4
"C=CCCCCCCC=C [1,9-Decadiene]",OPTISAFE (no antioxidant) Score AVG,[1],22.5 ± 3.6
same,OS2 (with antioxidant) Score AVG,[2],11.4 ± 6.4
same,OS Cons,[3]; [8],2
O=C1CCCO1 [gamma-Butyrolactone],OS Cons,[3]; [7],2
same,In vivo GHS,[6],2A (2A (reversal by 7 days))
same,OS2 Cons,[5],2
same,OS2 R1,[5],2
same,OS2 R3,[5],2
CCCCC(CC)COC(=O)CS (stereo not drawn),OPTISAFE prediction without the antioxidant mixture,[1],overpredicted
